Data reported in patent US8236339B2, “Therapeutic delivery of carbon monoxide” (priority 2001, dated 2012).
Entries after “also recorded” stand apart in the source; their conditions may differ.

Tests used:
[1] = Systemic blood pressure and heart rate in anaesthetised Sprague-Dawley rats; assay type: in vivo, rat; details: for HR, 60 μmol.kg^−1 / MAP, 60 μmol.kg^−1: directly after i.v. bolus 60 μmol/kg (cumulative 100); for HR, Baseline / MAP, Baseline: just before infusion of the compound
Method: Adult male Sprague-Dawley rats (280-350 g, 8-10 weeks of age) were bred in-house at the Northwick Park Institute for Medical Research (Harrow, UK). Rats were housed in groups of 3 in cages under a 12 h cycle of day/night, with free access to drinking water and fed ad libitum. All surgical procedures were performed in compliance with U.K. Home Office regulations. Rats were anaesthetised in a polycarbonate chamber in a stream of Enflurane™ (Abbot, UK) in oxygen before being transferred onto a mask and continuously supplied with Enflurane™ throughout the experiment with an anaesthetic machine (Aimed, UK). During the surgical procedure the rats were kept at a constant body temperature of 37° C. using a heat pad positioned underneath the operating surface. Specially designed femoral artery and venous catheters were then surgically implanted as previously described (see ref. 40). The catheter in the artery was connected via a luer connector and a three-way tap to a pressure transducer (Gould model P23ID, Statham, USA) for continuous mean arterial pressure (MAP) and heart rate (HR) monitoring. A purpose-built tail-cuff pressure transducer (ADInstruments, UK) was also placed on the tail of the rat and pressure transducer and tail cuff were connected to a polygraph recorder (Grass, Model 7D, Astra-med, UK) pre-calibrated in millimeters of mercury (mmHg). An analogue output provided data for a computer-based data acquisition system (PowerLab™, ADInstruments, UK). The computer-based system was set to record mean arterial pressure (MAP), in mmHg, and heart rate (HR), in beats/min (bpm), for the duration of the experiment. […] Once a stable pressure had been reached, each catheter was flushed with saline containing heparin and no further changes were made to the anaesthetic supply. Ru(CO)3Cl(glycinato) (CO-RM-3) was prepared in stock solutions of 20, 60 and 120 μmoles·ml^−1 by solubilizing the compound in saline. […] CO-RM-3 (or the negative control) was then infused into the animal via the femoral vein catheter as a bolus so that the final concentration infused was 10, 30 or 60 μmoles·kg^−1 body weight. Throughout the experiment MAP and HR were continuously recorded and monitored. Although concentrations of 10, 30 and 60 μmoles·kg^−1 were infused into each animal, the resulting concentrations in the animal were cumulative. Therefore, the final concentration attained in the animal was 10, 40 and 100 μmoles·kg^−1, respectively.
The results are presented in Table 2, where the data shown represents samples taken at baseline (just before infusion of the compound) and directly after administration of 10, 30 and 60 μmoles·kg^−1 of the compound. All data are mean i SEM. n=3 independent experiments. *P<0.05 vs. baseline.

[2] = L-NAME-induced increase in mean arterial pressure in anaesthetised Lewis rats; assay type: in vivo, rat; details: L-NAME 30 μmol/kg i.v.; [Ru(CO)3Cl2]2 60 μmol/kg i.v. 1 h before; hemin 75 μmol/kg i.p. 24 h before; SnPPIX 40 μmol/kg i.p.
Method: Lewis rats (280-350 g) were anaesthetised by intramuscular injection of 1 ml/kg Hypnorm (fentanyl 0.315 mg/ml and fluanisone 10 mg/ml) followed 5 min later by an intraperitoneal injection of 5 mg/kg diazepam. Specially designed femoral artery and venous catheters were then surgically implanted as previously described (40). The arterial cannula was connected to a Grass pressure transducer and blood pressure monitored continuously using a polygraph recorder. Experiments were conducted on anaesthetized animals and recordings were made within 30 min of the surgical procedure.
Control rats (vehicle-treated) and animals that were pre-treated with hemin (75 μmol/kg, i.p) 24 h prior to blood pressure monitoring were then administered with an intravenous injection of 30 μmol/Kg L-NAME to elicit an increase in mean arterial pressure. The extent of blood pressure increase by L-NAME was also monitored over time in hemin-treated animals that received SnPPIX (40 μmol/kg, i.p.) and in control rats previously injected with [Ru(CO)3Cl2]2 (60 μmol/kg, i.v.). In these two groups, SnPPIX or [Ru(CO)3Cl2]2 were administered to animals 1 h prior to L-NAME injection.

isolated rat hearts = details: for effect on L-NAME-mediated vasoconstriction / rise in CPP: L-NAME 25 μM perfusion
Method: Langendorff heart preparations were performed using male Lewis rats (300-350 g) as previously described by our group (35). […] (pH 7.4). Coronary perfusion pressure (CPP), a parameter indicative of coronary vessel contractility, was continuously measured by a pressure transducer connected to the aortic cannula and data analyzed with an Acknowledge software (BIOPAC System Inc.).
Hearts removed either from control rats (vehicle-treated) or from animals that were pre-treated with the heme oxygenase-1 inducer hemin (75 μmol/kg, i.p.) the day before, were initially equilibrated for 20 min on the Langendorff apparatus and then perfused with L-NAME (25 μM final concentration) to elicit vasoconstriction. The extent of CPP increase by L-NAME was also monitored over time in hemin-treated animals that received a heme oxygenase inhibitor (SnPPIX, 40 μmol/kg) 1 h prior to heart excision and in control hearts that were perfused with buffer supplemented with [Mn2(CO)10] (13 μM final concentration). Since [Mn2(CO)10] releases CO only by photodissociation, Krebs buffer containing [Mn2(CO)10] was exposed to a cold light source immediately before entering the aortic cannula.

[3] = test system: Rat vascular smooth muscle cells; experiment: Cell viability of vascular smooth muscle cells (colorimetric assay); assay type: cell-based
Method: Rat vascular smooth muscle cells were obtained from the Coriell Cell Repository (Camden, N.J., USA) and grown in Dulbecco's […] (MEM) supplemented with 20% foetal calf serum, 2×MEM vitamins, 2×MEM non-essential and essential amino acids, penicillin (100 units/ml) and streptomycin (0.1 mg/ml). Confluent cells were treated with different concentrations of metal carbonyl (introduced as DMSO solution—see section B) for various times and cell viability was assessed using a colorimetric assay kit from Promega (Madison, Wis., USA) as previously described (47) after 3 or 24 h incubation, or after 3 h exposure to the agents followed by 21 h incubation in complete media. Results are expressed as the mean±s.e.m. of 6 independent experiments and differences were considered statistically significant at P<0.05 (*).

[4] = test system: aortic rings pre-contracted with phenylephrine; experiment: Relaxation of isolated aortic rings pre-contracted with phenylephrine; design: species or system rat; details: for vasodilatory effect on pre-contracted aortic rings (in words): consecutive additions; for % Relaxation, 1st addition / % Relaxation, 2nd addition / % Relaxation, 3rd addition: cumulative doses, phenylephrine 3 μM
Method: Transverse ring sections of thoracic aorta were isolated from male Lewis rats and suspended under a 2 g tension in an organ bath containing oxygenated Krebs-Henseleit buffer at 37° C. as previously described (23). The relaxation response to cumulative doses of metal carbonyl (dissolved in DMSO—see section 2) was assessed in aortic rings pre-contracted with phenylephrine (3 μM). Control rings were similarly treated by adding equal doses of DMSO (vehicle) to the organ bath.

[5] = test system: deoxymyoglobin (deoxy-Mb); experiment: Myoglobin assay: conversion of deoxy-Mb to MbCO on direct addition of metal carbonyl; assay type: biochemical, horse; details: for MbCO formation / CO release when added directly to deoxy-Mb solution: direct addition to myoglobin solution (66 μM), no light
Method: The release of CO from metal carbonyl complexes was assessed spectrophotometrically by measuring the conversion of deoxymyoglobin (deoxy-Mb) to carbonmonoxy myoglobin (MbCO). MbCO has a distinctive absorption spectrum between 500 and 600 nm, and changes at 540 nm were used to quantify the amount of CO liberated. Myoglobin solutions (66 μM final concentration) were prepared freshly by dissolving the protein in 0.04 M phosphate buffer (pH 6.8). Sodium dithionite (0.1%) was added to convert myoglobin to deoxy-Mb prior to each reading. All the spectra were measured using a Helios a spectrophotometer.
Various metal carbonyl complexes were tested for their ability to elicit MbCO formation when added directly to a deoxy-Mb solution. To different extents, [Ru(CO)3Cl2]2, [Ru(CO)2(DMSO)2Cl2], [Ru(CO)3Cl2(cytosine)] and […] all released CO when added directly to the Mb solution.
The metal carbonyl complex was solubilized in DMSO (9.7 mM stock solution), aliquots of 2 to 32 μl were added directly to 1 ml of deoxy-Mb solutions (66 μM) and absorption spectrum determined immediately after mixing the samples by inversion.

[6] = directly after i.v. bolus 10 μmol/kg
[7] = directly after i.v. bolus 30 μmol/kg (cumulative 40)

Compound	effect on L-NAME-induced increase in blood pressure [2]	vasodilatory effect on pre-contracted aortic rings (in words) [4]	% Relaxation, 1st addition [4]	% Relaxation, 2nd addition [4]	% Relaxation, 3rd addition [4]	MbCO formation / CO release when added directly to deoxy-Mb solution [5]	also measured
CS(C)=O.CS(C)=O.CS(C)=O.CS(C)=O.[Cl][Ru][Cl] [Cis-RuCl2(DMSO)4, reference compound]							effects on HR or MAP (in words) ([1]; 10, 30 or 60 μmoles·kg^−1): no significant effects on either HR or MAP; marginal increase in MAP during the administration of each bolus ([1]; believed to be a volume effect, also seen with saline): 5.5±1 mmHg; HR, 10 μmol.kg^−1 [1, 6]: 255 ± 6 bpm; MAP, 10 μmol.kg^−1 [1, 6]: 82 ± 4 mmHg; HR, 30 μmol.kg^−1 [1, 7]: 256 ± 8 bpm; MAP, 30 μmol.kg^−1 [1, 7]: 79 ± 5 mmHg; HR, 60 μmol.kg^−1 [1]: 256±9 bpm; MAP, 60 μmol.kg^−1 [1]: 81±4 mmHg; HR, 60 μmol.kg^−1 ([1]; listed as Cts-RuCl2(DMSO)4): 256 ± 9 bpm; MAP, 60 μmol.kg^−1 ([1]; listed as Cts-RuCl2(DMSO)4): 81± 4 mmHg; HR, Baseline [1]: 257±7 bpm; MAP, Baseline [1]: 80±2 mmHg; HR, Baseline ([1]; listed as Cts-RuCl2(DMSO)4): 257 ± 7 bpm; MAP, Baseline ([1]; listed as Cts-RuCl2(DMSO)4): 80 ± 2 mmHg
COC(=O)[C@@H](N)CCCNC(=N)N[N+](=O)[O-] [L-NAME, N^G-nitro-L-arginine methyl ester]	rapid and significant increase in blood pressure						maximum increase in CPP (isolated rat hearts; L-NAME 25 μM, after 30 min): 3 fold
O.[Cl][Ru]([Cl])[Cl] [RuCl3, ruthenium(III) chloride hydrate, reference compound]							decrease in cell viability over time ([3]; equivalent molar concentrations of ruthenium): did not cause any appreciable decrease in cell viability
C=Cc1c2[n-]c(c1C)/C=c1\[n-]/c(c(C)c1C=C)=C\c1[n-]c(c(CCC(=O)O)c1C)C=c1[n-]/c(c(C)c1CCC(=O)O)=C\2.[Sn+4] [SnPPIX, tin protoporphyrin IX]	totally reversed						effect on L-NAME-mediated vasoconstriction / rise in CPP (isolated rat hearts): the effect of hemin was completely reversed
[C-]#[O+].[C-]#[O+].[C-]#[O+].[C-]#[O+].[C-]#[O+].[C-]#[O+].[Cl][Ru][Cl].[Cl][Ru][Cl] [[Ru(CO)3Cl2]2, tricarbonyldichlororuthenium (II) dimer]	markedly suppressed	rapid and significant vasodilatation	49.9 ± 2.7 %	66.2 ± 3.2 %	74.1 ± 4.1 %	released CO	extent of relaxation after the first addition, more than control ([4]; 222 μM final concentration): 45%; phenylephrine-induced contraction after extensive washing ([4]; after extensive washing, restored in control but not in treated vessels): produces long-lasting effects; cell viability ([3]; 3 h exposure followed by additional 21 h incubation in complete medium): well preserved; cytotoxicity ([3]; 3 h treatment, 0-420 μM final concentration): did not promote any detectable cytotoxicity; loss in cell viability ([3]; prolonged exposure (24 h), very high concentrations (>400 μM)): > 50%; moles of CO liberated for each mole of compound ([5]; 9.7 mM DMSO stock, 2 to 32 μl added to 1 ml deoxy-Mb 66 μM, linear regression of MbCO saturation curve): approximately 0.7 moles
[Fe(SPh)2(2,2′-bipyridine)(CO)2]		very effective in promoting vasorelaxation	50.8%	60.5%	75%	did not release any detectable CO to myoglobin; also recorded: No MbCO was detected	
[Fe(SPh)2(H2NCH2CH2NH2)(CO)2]		less evident	11%	24.6%	29.3%	No MbCO was detected	
[Ru(CO)2(DMSO)2Cl2]		produced vasodilatation although the effect was less pronounced compared to [Ru(CO)3Cl2]2	1.6%	16%	35%	released CO	
[Ru(CO)3Cl2(cytosine)]		did not demonstrate any effect	3.2%	10.3%	12.6%	released CO	
manganese chloride							effect on L-NAME-mediated vasoconstriction / rise in CPP (isolated rat hearts): had no effect on myocardial CPP
